Consider 4 compounds from patent publication US20130131008A1, “LIPOPHILIC MONOPHOSPHORYLATED DERIVATIVES AND NANOPARTICLES” (BOARD OF REGENTS, THE UNIVERSITY OF TEXAS SYSTEM, priority 2011, published 2013).

SMILES strings stand for the structures.

One series deals with CCRF-CEM cells. The experiment in a line: In vitro cytotoxicity assay (MTT), 72 h. Format: cell-based, human. The following applies: 72 h incubation. From the text: (§1) Human leukemia cell line CCRF-CEM (CCL-119), human pancreatic cancer cell lines PANC-1 (CRL-1469), MIA PaCa-2 (CRL-1420), and BxPC-3 (CRL-1687), human breast adenocarcinoma cell line MCF-7 (HTB-22), and mouse lung cancer cell line TC-1 (CRL-2785) were from the American Type Culture Collection (Rockville, Md.). CCRF-CEM-AraC-8C cells (hENT1 deficient) and CCRF-CEM/dCK^−/− cells (dCK deficient) were kindly provided by Dr. Buddy Ullmann (Oregon Health & Science University, Portland, Oreg.) and Dr. Margaret Black (Washington State University, Pullman, Wash.), respectively. L1210 wt and L1210 10K were kindly supplied by Dr. Lars Petter Jordheim (Université Claude Bernard Lyon I, Lyon, France). TC-1-GR cells were previously developed in our lab. CCRF-CEM, CCRF-CEM-AraC-8C, CCRF-CEM/dCK^−/−, L1210 wt, L1210 10K, TC-1, and TC-1-GR cells were cultured in RPMI 1640 medium. MCF-7 and PANC-1 cells were cultured in Dulbecco's modified Eagle medium (DMEM), MIA PaCa-2 cells were cultured in DMEM medium with 2.5% horse serum. All media were supplemented with 10% fetal bovine serum (FBS), 100 U/mL of penicillin, and 100 μg/mL of streptomycin (all from Invitrogen, Carlsbad, Calif.).
(§2) Cells (5,000/well) were seeded in 96-well plates. After overnight incubation, they were treated with various concentrations of gemcitabine HCl, gemcitabine derivatives, or gemcitabine derivatives in nanoparticles at 37° C., 5% CO2. TC-1 and TC-1-GR cells were incubated for 48 h. CCRF-CEM, CCRF-CEM-AraC-8C, CCRF-CEM/dCK^−/−, L1210 wt, L1210 10K, and MCF-7 cells were incubated for 72 h, and MIA PaCa-2 and PANC-1 for 96 h. Gemcitabine HCl was dissolved in phosphate-buffered saline (PBS), and gemcitabine derivatives were dissolved in dimethyl sulfoxide (DMSO). […] The number of viable cells after the incubation was determined using an MTT assay. Briefly, 3-(4,5-dimethylthiazol-2-yl)-2,5-diphenyltetrazolium bromide (20 μl, 5 mg/mL) was added in each well and incubated for 3 h. Formazan crystals were solubilized with acidified isopropanol (150 μl) (for CCRF-CEM, CCRF-CEM-AraC-8C, CCRF-CEM/dCK^−/−, L1210 wt, and L1210 10K cells) or DMSO (150 μl) (for TC-1, TC-1-GR, MCF-7, PANC-1, and MIA PaCa-2). Absorbance was measured using a BioTek Synergy™ HT Multi-Mode Microplate Reader (BioTek Instruments, Winooski, Vt.) at 570 nm and 630 nm. The fraction of affected (dead) cells (Fa) and the fraction of unaffected (live) cells (Fu) at every dose were calculated, and the Log(Fa/Fu) values were plotted against the Log(concentration of gemcitabine). IC50 was the dose at Log(Fa/Fu)=0, See e.g., Chou, T. C. & Talalay, P., 1984, Adv. Enzyme Regul. 22:27-55. The experiment was repeated at least three times.

The test system of the next series is PANC-1 cells. The experiment in a line: In vitro cytotoxicity assay (MTT), 96 h, RRM2 over-expressing cells. Format: cell-based, human. The following applies: for IC50: MTT, 96 h incubation, RRM2 over-expressing.
Source text: as §1, §2

The test system of a further series is TC-1 cells. The experiment in a line: In vitro cytotoxicity assay (MTT), 48 h. Format: cell-based. The conditions noted are these: 48 h incubation.
Source text: as §1, §2

The test system of the next series is MIA PaCa-2 cells. The experiment in a line: In vitro cytotoxicity assay (MTT), 96 h. Format: cell-based, human. The conditions noted are these: 96 h incubation.
Source text: as §1, §2

For the next series, the system named is TC-1-GR cells. Nature of the series: cells. The conditions noted are these: for IC50: MTT, 48 h incubation, RRM1 over-expressing. Format: cell-based.
Source text: as §1, §2

The test system of another series is CCRF-CEM-AraC-8C cells. Nature of the series: In vitro cytotoxicity assay (MTT), 72 h, hENT1 deficient cells. Format: cell-based, human. The following applies: for IC50: MTT, 72 h incubation, hENT1 deficient.
Source text: as §1, §2

A short description of series [1]: Solubility observations (DMSO, water). Format: physicochemical. The following applies: for the in vitro cytotoxicity assay.
For a further series, the system named is B16-F10 melanoma tumor. The experiment in a line: Antitumor activity of GemC18/PEG-C18 micelles in mice with B16-F10 tumors (Example 20). Format: in vivo, mouse. The conditions noted are these: C57BL/6 mice, tail vein injection, 0.283 mg GemHCl or molar equivalent GemC18; 2 doses (micelles 3 doses), 3 days apart. The method, then:
The in vivo antitumor activity of GemC18/PEG-C18 micelles was evaluated in C57BL/6 mice with subcutaneously inoculated B16-F10 cells (5.0×10^5/mouse) in the right flank. Treatments were given 6 days after tumor cell inoculation by tail vein injection with normal saline, Gemcitabine HCl (GemHCl) solution, GemC18 solution, blank PEG-C18 micelles, or GemC18/PEG-C18 micelles. The dose was 0.283 mg of GemHCl or molar equivalent amount of GemC18. All groups received a second dose three days after the first dose, while the GemC18/PEG-C18 micelle group also received a third dose 3 days after the second dose. Tumor sizes were measured with calipers in two perpendicular diameters every day and reported as tumor volume (V=½ [a×b^2], a=longer diameter, b=shorter diameter).

The test system of a further series is CCRF-CEM/dCK−/− cells. The experiment in a line: In vitro cytotoxicity assay (MTT), 72 h, dCK deficient cells. The series is classed as cell-based, human. The conditions noted are these: MTT, 72 h incubation; dCK deficient.
Source text: as §1
Cells (5,000/well) were seeded in 96-well plates. After overnight incubation, they were treated with various concentrations of gemcitabine HCl, gemcitabine derivatives, or gemcitabine derivatives in nanoparticles at 37° C., 5% CO2. TC-1 and TC-1-GR cells were incubated for 48 h. CCRF-CEM, CCRF-CEM-AraC-8C, CCRF-CEM/dCK^−/−, L1210 wt, L1210 10K, and MCF-7 cells were incubated for 72 h, and MIA PaCa-2 and PANC-1 for 96 h. […] The number of viable cells after the incubation was determined using an MTT assay. […] Absorbance was measured using a BioTek Synergy™ HT Multi-Mode Microplate Reader (BioTek Instruments, Winooski, Vt.) at 570 nm and 630 nm. The fraction of affected (dead) cells (Fa) and the fraction of unaffected (live) cells (Fu) at every dose were calculated, and the Log(Fa/Fu) values were plotted against the Log(concentration of gemcitabine). […]

Setting [2] is: IC50 of gemcitabine HCl divided by that of the derivatives or derivatives in nanoparticles.

By IC50 is commonly meant the concentration at which inhibition is half-maximal. As to `CCCCCCCCCCCCCCCCCC(=O)OCC(Cl)COP(=O)(O)OC[C@H]1O[C@@H](n2ccc(N)nc2=O)C(F)(F)[C@@H]1O` (mixture of isomers) [Compound 12, 2′-2′-difluoro-2′-deoxycytidine 5′(3-stearoyloxy-2-rac-chloropropyl)phosphate], the IC50 is 49.8 ± 5.9 nM in the series on CCRF-CEM cells; 58700 ± 14200 nM with PANC-1 cells; 430 ± 52.4 nM with TC-1 cells; 245 ± 38 nM in the series with MIA PaCa-2 cells; 76300 ± 10500 nM with TC-1-GR cells; 1770 ± 533 nM in the series on CCRF-CEM-AraC-8C cells.
Turning to `CCCCCCCCCCCCCCCCCC(=O)Nc1ccn([C@@H]2O[C@H](COP(=O)(O)O)C(O)C2(F)F)c(=O)n1` (stereo in doubt) [Compound 13, 4-N-Octadecanoyl-2′-2′-difluoro-2′-deoxycytidine 5′-sodiumphosphate], the “solubility in DMSO” value in series [1] is listed as “not sufficiently solubilized in DMSO”.
`CCCCCCCCCCCCCCCCCCOP(=O)(O)OC[C@H]1O[C@@H](n2ccc(NC(C)=O)nc2=O)C(F)(F)[C@@H]1O` [Compound 9, 4-N-acetyl-2′-2′-difluoro-2′-deoxycytidine-5′-octadecylphosphate]: the half-maximal inhibitory concentration (IC50) with CCRF-CEM cells was 58.1 ± 18.5 nM; in the series on PANC-1 cells, 38500 ± 5700 nM; with TC-1 cells it was 211 ± 85 nM; with MIA PaCa-2 cells, 205 ± 39.5 nM; in the series with TC-1-GR cells, 9300 ± 2500 nM; with CCRF-CEM-AraC-8C cells it was 575 ± 97.1 nM.
`CCCCCCCCCCCCCCCCCC(=O)Nc1ccn([C@@H]2OC(CO)C(O)C2(F)F)c(=O)n1` (stereo partly shown) [GemC18, 4-N-stearoyl gemcitabine]: in the series with B16-F10 melanoma tumor, the “B16-F10 tumor growth (tumor volume)” value is listed as “not significant different from that in mice that received normal saline”. In addition, the IC50 in the series with CCRF-CEM cells came out at 19.4 ± 13.3 nM; with CCRF-CEM/dCK−/− cells, 47300 ± 8700 nM; in the series on PANC-1 cells, 6000 ± 1100 nM; in the series on TC-1 cells, 132 ± 17.2 nM; in the series on MIA PaCa-2 cells it was 133 ± 60.4 nM; in the series on TC-1-GR cells, 7700 ± 2400 nM. In addition, in the series with CCRF-CEM-AraC-8C cells, the IC50 came out at 369 ± 235 nM. Moreover, the “Ratio of IC50 in PANC-1 to that in MIA PaCa-2” value with PANC-1 cells came out at 45. The “Ratio of IC50 values in TC-1-GR cells” value in the series on TC-1-GR cells (setting [2]) is recorded as 5. In addition, the “Ratio of IC50 in CCRF-CEM-AraC-8C to that in CCRF-CEM” value in the series on CCRF-CEM-AraC-8C cells is listed as 19. Also, the “Ratio of IC50 values in CEM-AraC-8C cells” value in the series on CCRF-CEM-AraC-8C cells (setting [2]) is given as 2.7.
